Assay results taken from PubChem BioAssay AID1963966 (Molecular Pharmacology Branch, DTP, NCI, 2024).

Tested on: 935938-334-R-J1-PDC spheroids with HUVEC/MSC, viability
Test: Anticancer human tumor 935938-334-R-J1-PDC patient-derived small intestine adenocarcinoma cell line growth inhibition [PI3K]
Details: for IC50: curve of first compound; for viability, T/C: stronger effect = lower value
Method in brief: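 We assembled tumor spheroids that included a stromal compartment of HUVEC and MSCs, then exposed them to targeted agents alone and together with PI3K pathway inhibitors. Concentration series descended by half-log from clinically achievable Cmax levels. Viability served as the endpoint.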

[1] = second compound 0.0316 µM, first compound 0.0316 µM
[2] = second compound 0.0316 µM, first compound 0.1 µM
[3] = second compound 0.0316 µM, first compound 0.316 µM
[4] = second compound 0.0316 µM, first compound 1 µM
[5] = second compound 0.0316 µM, first compound 3.16 µM
[6] = second compound 0.0316 µM, first compound 10 µM
[7] = second compound 0.1 µM, first compound 0.0316 µM
[8] = second compound 0.1 µM, first compound 0.1 µM
[9] = second compound 0.1 µM, first compound 0.316 µM
[10] = second compound 0.1 µM, first compound 1 µM
[11] = second compound 0.1 µM, first compound 3.16 µM
[12] = second compound 0.1 µM, first compound 10 µM
[13] = second compound 0.316 µM, first compound 0.0316 µM
[14] = second compound 0.316 µM, first compound 0.1 µM
[15] = second compound 0.316 µM, first compound 0.316 µM
[16] = second compound 0.316 µM, first compound 1 µM
[17] = second compound 0.316 µM, first compound 3.16 µM
[18] = second compound 0.316 µM, first compound 10 µM
[19] = second compound 1 µM, first compound 0.0316 µM
[20] = second compound 1 µM, first compound 0.1 µM
[21] = second compound 1 µM, first compound 0.316 µM
[22] = second compound 1 µM, first compound 1 µM
[23] = second compound 1 µM, first compound 3.16 µM
[24] = second compound 1 µM, first compound 10 µM
[25] = second compound 3.16 µM, first compound 0.0316 µM
[26] = second compound 3.16 µM, first compound 0.1 µM
[27] = second compound 3.16 µM, first compound 0.316 µM
[28] = second compound 3.16 µM, first compound 1 µM
[29] = second compound 3.16 µM, first compound 3.16 µM
[30] = second compound 3.16 µM, first compound 10 µM
[31] = second compound 10 µM, first compound 0.0316 µM
[32] = second compound 10 µM, first compound 0.1 µM
[33] = second compound 10 µM, first compound 0.316 µM
[34] = second compound 10 µM, first compound 1 µM
[35] = second compound 10 µM, first compound 3.16 µM
[36] = second compound 10 µM, first compound 10 µM
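Note: compound exposure lasted seven days before viability was read.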
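Throughout, for viability, T/C: percent of vehicle DMSO treated spheroid viability so 100% = untreated.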

SMILES: C#Cc1c(F)ccc2cc(O)cc(-c3ncc4c(N5CC6CCC(C5)N6)nc(OCC56CCCN5CC(F)C6)nc4c3F)c12 (centres undefined) + Cc1nc(NC(=O)N2CCCC2C(N)=O)sc1-c1ccnc(C(C)(C)C(F)(F)F)c1
- IC50 (second compound 0.0316 µM): 987 nM
- IC50 (second compound 0.1 µM): 1870 nM
- IC50 (second compound 0.316 µM): 1490 nM
- IC50 (second compound 1 µM): 528 nM
- IC50 (second compound 3.16 µM): 48.9 nM
- IC50 (second compound 10 µM): < 31.6 nM
- viability, T/C [1]: 101%
- viability, T/C [2]: 89.2%
- viability, T/C [3]: 107%
- viability, T/C [4]: 49.4%
- viability, T/C [5]: 36.8%
- viability, T/C [6]: 32.7%
- viability, T/C [7]: 88.8%
- viability, T/C [8]: 73.6%
- viability, T/C [9]: 79%
- viability, T/C [10]: 60%
- viability, T/C [11]: 40.7%
- viability, T/C [12]: 27.6%
- viability, T/C [13]: 94.4%
- viability, T/C [14]: 80%
- viability, T/C [15]: 77.3%
- viability, T/C [16]: 59.5%
- viability, T/C [17]: 33.4%
- viability, T/C [18]: 29.4%
- viability, T/C [19]: 76.5%
- viability, T/C [20]: 85.9%
- viability, T/C [21]: 60.4%
- viability, T/C [22]: 35.4%
- viability, T/C [23]: 29.3%
- viability, T/C [24]: 21.1%
- viability, T/C [25]: 51.5%
- viability, T/C [26]: 46.5%
- viability, T/C [27]: 40.7%
- viability, T/C [28]: 30.8%
- viability, T/C [29]: 25.7%
- viability, T/C [30]: 23.4%
- viability, T/C [31]: 47.8%
- viability, T/C [32]: 33.2%
- viability, T/C [33]: 36.8%
- viability, T/C [34]: 27.6%
- viability, T/C [35]: 17.3%
- viability, T/C [36]: 16%

SMILES: CC1(C)CCC(Nc2ncc(C(F)(F)F)c(-c3c[nH]c4c(P(C)(C)=O)c(C#N)ccc34)n2)CN1 (centres undefined) + Cc1nc(NC(=O)N2CCCC2C(N)=O)sc1-c1ccnc(C(C)(C)C(F)(F)F)c1
- IC50 (second compound 0.0316 µM): < 31.6 nM
- IC50 (second compound 0.1 µM): < 31.6 nM
- IC50 (second compound 0.316 µM): < 31.6 nM
- IC50 (second compound 1 µM): < 31.6 nM
- IC50 (second compound 3.16 µM): < 31.6 nM
- IC50 (second compound 10 µM): < 31.6 nM
- viability, T/C [1]: 31.4%
- viability, T/C [2]: 24.9%
- viability, T/C [3]: 39.4%
- viability, T/C [4]: 33.7%
- viability, T/C [5]: 30.8%
- viability, T/C [6]: 5.69%
- viability, T/C [7]: 33.6%
- viability, T/C [8]: 34.4%
- viability, T/C [9]: 31.6%
- viability, T/C [10]: 32.3%
- viability, T/C [11]: 36.3%
- viability, T/C [12]: 6.9%
- viability, T/C [13]: 34.6%
- viability, T/C [14]: 34.5%
- viability, T/C [15]: 26.2%
- viability, T/C [16]: 29.6%
- viability, T/C [17]: 27.6%
- viability, T/C [18]: 6.74%
- viability, T/C [19]: 38.3%
- viability, T/C [20]: 26.2%
- viability, T/C [21]: 23.7%
- viability, T/C [22]: 20.8%
- viability, T/C [23]: 23.7%
- viability, T/C [24]: 4.15%
- viability, T/C [25]: 24.6%
- viability, T/C [26]: 22.6%
- viability, T/C [27]: 24.5%
- viability, T/C [28]: 25.2%
- viability, T/C [29]: 25.2%
- viability, T/C [30]: 3.91%
- viability, T/C [31]: 25.6%
- viability, T/C [32]: 23.8%
- viability, T/C [33]: 26.2%
- viability, T/C [34]: 24.7%
- viability, T/C [35]: 19.9%
- viability, T/C [36]: 2.1%
